In patent US10543185B2, “Method for treating idiopathic pulmonary fibrosis” (The University of Chicago, priority 2015, dated 2020):
“Also recorded” adds a separate entry of the source.

Assays:
[1] = system: patients with idiopathic pulmonary fibrosis (IPF); assay: PANTHER-IPF clinical trial cohort: secondary genotype-stratified survival analysis, NAC or PAN versus placebo; format: in vivo, human; settings: for Composite Endpoint, %: 10% FVC decline, hospitalization or transplantation; for Treatment-Specific Composite Endpoint Risk, HR / Multivariable Cox interaction model coefficient, therapy term / Multivariable Cox interaction model coefficient, SNP*therapy interaction term: adjusted for age, gender; for Treatment-Specific Composite Endpoint Risk, HR: FVC (% predicted) and DLCO (% predicted); for Multivariable Cox interaction model coefficient, therapy term / Multivariable Cox interaction model coefficient, SNP*therapy interaction term: composite endpoint-free survival, FVC and DLCO; for Progression-Free Survival HR (95% CI) / Hospitalization-Free Survival HR (95% CI): NAC vs placebo
From the text: Single nucleotide polymorphisms (SNPs) within TOLLIP and MUC5B are associated with idiopathic pulmonary fibrosis (IPF) susceptibility and survival. Both genes play critical roles in lung host defense, a process that can be influenced by oxidative stress and modulated by N-acetylcysteine (NAC). Applicants set out to determine whether SNPs within TOLLIP and MUC5B modify the efficacy of NAC therapy in patients with IPF. To achieve this, secondary analysis was completed of the PANTHER-IPF clinical trial (n=154) and an independent replication cohort (n=405) composed of patients from the INSPIRE clinical trial and University of Chicago. SNPs within TOLLIP (rs5743890/rs5743894/rs5743854/rs3750920) and MUC5B ([…]) were genotyped. Multivariable Cox regression with interaction analysis was performed followed by genotype-stratified models for significant interaction SNPs to determine genotype-specific survival associated with NAC therapy. A composite endpoint of death, FVC decline, hospitalization or transplantation was used.
The PANTHER cohort consists of individuals enrolled in the IPFnet randomized clinical trial comparing three treatments: prednisone/azathioprine/N-acetylcysteine (PAN) combination therapy, N-acetylcysteine (NAC) monotherapy and placebo. […] Enrollment resumed for the NAC and placebo arms from January to July 2012, with study completion in 2013. Clinical and genetic data for patients providing informed consent to genetic testing were used to conduct the analysis. Patients were followed for up to 72 weeks after randomization.
To minimize the effects of population stratification, only participants that self-declared a non-Hispanic white ethnicity were included in the analysis. Demographic and clinical information extracted from the datasets included age, gender, race/ethnicity, treatment arm, pulmonary function testing (PFT) including forced vital capacity (FVC) and diffusion capacity for carbon monoxide (DLCO) and outcomes, including death, >10% decline in FVC, hospitalization and lung transplantation.
The primary analysis tested whether statistical interaction was present between SNPs of interest and NAC therapy with regard to composite endpoint-free survival, defined as time from trial enrollment to death, ≥10% FVC decline, hospitalization or transplantation. Interaction was formally tested with a multivariable Cox regression model that included the following variables: SNP genotype, NAC therapy, and a SNP*NAC interaction term, age, gender, FVC (% predicted) and DLCO (% predicted). Statistical interaction was considered present when the Wald z-statistic for SNP*NAC interaction term corresponded to a p-value <0.01, which adjusts for multiple testing by Bonferroni correction. Interaction detected by this method was then further explored by constructing genotype-stratified multivariable Cox models to determine genotype-specific endpoint risk associated with NAC therapy. Based on SNP distributions, an additive allelic model was assumed for rs3750920 (TOLLIP) and a dominant model for rs5743890 (TOLLIP), rs5743894 (TOLLIP), rs5743854 (TOLLIP) and rs35705950 (MUC5B). Each model was checked to ensure that the proportional hazards assumption was met.
Of the 341 patients enrolled in the PANTHER trial, 315 self-reported a non-Hispanic white ethnicity (FIG. 2). Of those 315 individuals, 154 consented to genetic testing and were included in the primary analysis. Among genotyped patients, fifty-four patients received placebo therapy and […] patients received NAC therapy. Baseline demographic and clinical characteristics between non-Hispanic white genotyped (n=154) and non-genotyped (n=161) patients stratified by treatment group are shown in Table 1. […]

[2] = system: patients with idiopathic pulmonary fibrosis (IPF); settings: previous reports (Martinez et al., N Engl J Med. 2014); cited from earlier work
[3] = PANTHER genotyped patients, NAC arm (n = 60)
[4] = PANTHER non-genotyped patients, NAC arm (n = 61)

**Q.** Which results are given for CC(=O)N[C@@H](CS)C(=O)O [NAC, (2R)-2-acetamido-3-sulfanylpropanoic acid]?
**A.** Death, % [1, 3]: (1.7) %; FVC Decline ≥10%, % [1, 3]: (18.3) %; Hospitalization, % [1, 3]: (13.3) %; Transplant, % [1, 3]: (5) %; Composite Endpoint, % ([1]; PANTHER genotyped patients, NAC arm (n = 60), death): (31.7) %; Death, % [1, 4]: (4.9) %; FVC Decline ≥10%, % [1, 4]: (27.9) %; Hospitalization, % [1, 4]: (14.8) %; Transplant, % [1, 4]: (1.6) %; Composite Endpoint, % ([1]; PANTHER non-genotyped patients, NAC arm (n = 61), death): (42.6) %; Treatment-Specific Composite Endpoint Risk, HR ([1]; genotyped PANTHER patients): 0.92; Multivariable Cox interaction model coefficient, therapy term ([1]; model with rs3750920 (TOLLIP)): 1.34; Multivariable Cox interaction model coefficient, therapy term ([1]; model with rs5743890 (TOLLIP)): 0.17; Multivariable Cox interaction model coefficient, therapy term ([1]; model with rs5743894 (TOLLIP)): 0.45; Multivariable Cox interaction model coefficient, therapy term ([1]; model with rs35705950 (MUC5B)): 0.91; Treatment-Specific Composite Endpoint Risk, HR ([1]; non-genotyped PANTHER patients): 1.31; Progression-Free Survival HR (95% CI) ([1]; rs3750920 (TOLLIP) CC genotype, death, 10% FVC decline or transplant): 1.27 (0.21-7.55); Hospitalization-Free Survival HR (95% CI) ([1]; rs3750920 (TOLLIP) CC genotype, death, hospitalization or transplant): 3.74 (0.35-39.80); Hospitalization-Free Survival HR (95% CI) ([1]; rs3750920 (TOLLIP) CT genotype): 0.45 (0.10-2.15); Progression-Free Survival HR (95% CI) ([1]; rs3750920 (TOLLIP) CT genotype): 0.63 (0.17-2.30); Progression-Free Survival HR (95% CI) ([1]; rs3750920 (TOLLIP) TT genotype): 0.09 (0.01-0.76); Multivariable Cox interaction model coefficient, SNP*therapy interaction term ([1]; rs3750920 (TOLLIP) interaction): −1.47; Multivariable Cox interaction model coefficient, SNP*therapy interaction term ([1]; rs5743890 (TOLLIP) interaction): −1.17; Hospitalization-Free Survival HR (95% CI) ([1]; rs5743894 (TOLLIP) AA genotype): 1.43 (0.44-4.70); Progression-Free Survival HR (95% CI) ([1]; rs5743894 (TOLLIP) AA genotype): 1.68 (0.58-4.90); Hospitalization-Free Survival HR (95% CI) ([1]; rs5743894 (TOLLIP) AG/GG genotype): 0.21 (0.02-1.99); Multivariable Cox interaction model coefficient, SNP*therapy interaction term ([1]; rs5743894 (TOLLIP) interaction): −1.42; Hospitalization-Free Survival HR (95% CI) ([1]; rs35705950 (MUC5B) GG genotype): 1.25 (0.15-10.30); Progression-Free Survival HR (95% CI) ([1]; rs35705950 (MUC5B) GG genotype): 3.72 (0.69-20.16); Hospitalization-Free Survival HR (95% CI) ([1]; rs35705950 (MUC5B) GG/TT genotype as printed in Table 7 (text: GT or TT)): 0.49 (0.15-1.58); Multivariable Cox interaction model coefficient, SNP*therapy interaction term ([1]; rs35705950 (MUC5B) interaction): −1.40; Benefit of therapy in patients with IPF, unselected by genotype [2]: no benefit; also recorded: did not provide benefit; also recorded: ineffective
